This is an account of results in patent US20260109712A1, “RIFAMYCINS FOR NONTUBERCULOUS MYCOBACTERIA” (priority 2022, published 2026).

Holding throughout (assay type): cell-based, Mycobacterium abscessus
The test system of test [1] is M. abscessus ATCC 19977. Briefly: MIC assay in 96-well plate format, wild-type strain. The method, boiled down:
(§1)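 Two-fold, ten-point dilutions in 7H9 with 2% DMSO; mid-log culture diluted to OD600=0.1 (1×10^7 CFU/mL). Incubated 3 days at 37 °C, shaking 110 RPM; growth = Day 3 minus Day 0 OD600, expressed as percentage of drug-free growth and plotted against concentration. Two biological replicates.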

Test [2] has as its system Δarr M. abscessus. Briefly: MIC assay, isogenic arr-deleted strain. As to conditions: arr-deleted strain; 90% growth inhibition. In outline:
as §1

Test [3] has as its system M. abscessus Bamboo. Briefly: MIC assay, clinical isolate Bamboo.
Test [4] concerns M. abscessus Bamboo. Briefly: Broth MBC90 (bMBC90). As to conditions: broth, 5 days. An excerpt:
Broth MIC, broth MBC90 (bMBC90), and caseum surrogate MBC90 ([…]) of clinically used antibiotics and of novel ADP-ribosylation-resistant rifabutin analogs against M. abscessus Bamboo have been evaluated.

Test [5] has as its system RFB-R1 M. abscessus. Briefly: microbe, parasite or virus in culture.
For test [6], the system named is M. abscessus subsp. abscessus K21. Briefly: MIC assay, clinical isolate K21. As to conditions: 90% inhibition of bacterial growth.
For test [7], the system named is M. abscessus Bamboo. As to the kind of experiment: Caseum surrogate MBC90 (cMBC90) kill assay.
From the text: (§2) The surrogate matrix was generated as described previously from cultured THP-1 cells (ATCC TIB-202) (mBio, 2023, 14, e0059823). M. abscessus exponential cultures grown in Middlebrook 7H9 broth (Sigma Aldrich) (OD600 0.6-0.9) were spun down and resuspended in water to an OD600 of 7, 0.7, and 0.07. As described for the M. tuberculosis caseum surrogate assay (mnBio, 2023, 14, e0059823), the bacterial suspensions (at three different dilutions resulting in ˜10^9, 10^8, and 10^7 starting CFU/mL, represented by circle, square, and triangle indicators respectively) were added to the caseum surrogate in the ratio 2:1 (vol/wt), briefly homogenized with 1.4-mm zirconia beads, divided evenly into nine 1.5-mL microcentrifuge tubes, and incubated as standing cultures at 37° C. At the indicated time points, tubes were removed and used for CFU enumeration by plating on Middlebrook 7H11 agar (Sigma Aldrich). Separate tubes were used at each time point. To determine the kill curves, cultures with a starting CFU/mL of 10^8 were used (resulting in the middle curve with square indicators). Arrows indicate the time points when drugs were added and the end of the treatment. The experiment was repeated three times independently, yielding similar results. A representative example is shown. Dots and error bars represent means and standard deviations of three technical replicates, respectively.
FIGS. 29A-29M show the Dose-response kill curves against M. abscessus Bamboo in caseum surrogate. M. abscessus cultures were set up as described in the legend of FIG. 28. Bacterial cell suspensions were added to yield a starting CFU of 10^8/mL (FIG. 28, middle growth curve with square indicators). […] The shaded areas indicate drug concentration windows achieved in caseum in vivo. (Antimicrob. Agents Chemother., 2021, 65, e0050621; Antimicrob. Agents Chemother., 2022, 66, e0221221; PLoS Med., 2019, 16, e1002773; ACS Infect. Dis., 2016, 2, 251-267). The experiment was repeated twice independently, yielding similar results. A representative example is shown. Dots and error bars represent means and standard deviations of three technical replicates, respectively. Horizontal dotted lines indicate the cutoff for 1 log reduction in CFU compared to 10-day drug-free control culture. The cMBC90 values shown in Table 16 are the drug concentrations that reduce CFU by 90% relative to the CFU of drug-free controls at day 10. Since the cultures were in the stationary phase on day 5 when drug treatment started, the CFUs of the drug-free cultures at day 10 were similar to the CFUs of the drug-free cultures at day 5 (FIG. 28).
as §2, with “(doi: 10.1128/mbio.00598-23).” for “(mBio, 2023, 14, e0059823).”, “(doi: 10.1128/mbio.00598-23),” for “(mnBio, 2023, 14, e0059823),”, “CFU/mL)” for “CFU/mL, represented by circle, square, and triangle indicators respectively)”, “curves for the drugs,” for “curves,”, “used.” for “used (resulting in the middle curve with square indicators). Arrows indicate the time points when drugs were added and the end of the treatment.”, “results.” for “results. A representative example is shown. Dots and error bars represent means and standard deviations of three technical replicates, respectively.”
The experiment was repeated twice independently, yielding similar results. A representative example is shown. The cMBC90 values shown in Table 16 are the drug concentrations that reduce CFU by 90% relative to the CFU of drug-free controls at day 10. […]

The mark [8] stands for this setting: 90% inhibition of bacterial growth.

In brackets after ≈: the same amount, converted by molar mass.

For orientation: MIC means the smallest concentration in the dilution series that meets the test's criterion for growth inhibition. Take `CO[C@H]1/C=C/O[C@@]2(C)Oc3c(C)c(O)c4c(c3C2=O)C2=NC3(CCN(CC(C)C)CC3)NC2=C(NC(=O)/C(C)=C/C=C/[C@H](C)[C@H](O)[C@@H](C)[C@@H](O)[C@@H](C)[C@H](OC(=O)c2ccccc2)[C@@H]1C)C4=O` [5a, 25-O-benzoyl rifabutin]: the “Mab 19977 MIC” value in test [1] (setting [8]) came to 0.053 µM. The MIC stood at 0.053 µM (≈ 0.0482 µg/mL) in test [1] (M. abscessus ATCC 19977, 90% growth inhibition, read-out: WT Mab MIC) and 0.07 µM (≈ 0.0636 µg/mL) in test [3] (broth, M. abscessus Bamboo, Table 16, read-out: MIC). Moreover, the MIC ratio in test [1] (WT MIC/Δarr strain MIC) came to 0.9. Moreover, in test [2], the “Δarr Mab MIC” value worked out at 0.06 µM. For the same compound, in test [3] (setting [8]), the “Mab Bamboo MIC” value was 0.065 µM. The MBC in test [4] stood at 0.30 µM (≈ 0.273 µg/mL); in test [7] (caseum surrogate, 5 days, 90% CFU reduction vs drug-free control, read-out: cMBC90), 8 µM (≈ 7.27 µg/mL). Also, the “activity against rifamycin-resistant mutant RFB-R1” value in test [5] (RNAP point mutation) is reported as “lost detectable activity”. In addition, the “RFB-R1 M. abscessus MIC” value in test [5] (rpoB H447Y mutant, 90% inhibition) is over 100 µM. Also, the “Mab K21 MIC” value in test [6] was determined as 0.098 µM. In addition, the cMBC90/bMBC90 in test [7] (5-day assays) turned out to be 26.7.
